ChEMBL document CHEMBL3112450, “Synthesis and in vitro antitumor evaluation of primary amine substituted quinazoline linked benzimidazole” (Bioorg Med Chem Lett, 2014)

How the values were obtained:
Type in all cases: functional
NCI-H522 = test: Cytotoxicity against human NCI-H522 cells after 48 hrs by SRB assay; conditions: NCI-H522, 48 h
NCI-H460 [1] = test: Cytotoxicity against human NCI-H460 cells after 48 hrs by SRB assay; conditions: NCI-H460, 48 h
UACC-62 = test: Cytotoxicity against human UACC62 cells assessed as cell growth at 10^-6 M after 48 hrs by SRB assay; conditions: UACC-62, 48 h, read-out: Activity
DU-145 = test: Cytotoxicity against human DU145 cells assessed as cell growth at 10^-4 M after 48 hrs by SRB assay; conditions: DU-145, 48 h, read-out: Activity
SK-MEL-5 [2] = test: Cytotoxicity against human SK-MEL-5 cells assessed as cell growth at 10^-6 M after 48 hrs by SRB assay; conditions: SK-MEL-5, 48 h, read-out: Activity
[3] = Cytotoxicity against human UO31 cells assessed as cell growth at 10^-7 M after 48 hrs by SRB assay; conditions: UO-31, 48 h, read-out: Activity
HOP-92 [4] = test: Cytotoxicity against human HOP92 cells assessed as cell growth at 10^-4 M after 48 hrs by SRB assay; conditions: HOP-92, 48 h, read-out: Activity
MDA-MB-468 = test: Cytotoxicity against human MDA-MB-468 cells after 48 hrs by SRB assay; conditions: MDA-MB-468, 48 h
IGROV-1 = test: Cytotoxicity against human IGROV1 cells assessed as cell growth at 10^-6 M after 48 hrs by SRB assay; conditions: IGROV-1, 48 h, read-out: Activity
SN12C [5] = test: Cytotoxicity against human SN12C cells assessed as cell growth at 10^-6 M after 48 hrs by SRB assay; conditions: read-out: Activity
HL-60(TB) = test: Cytotoxicity against human HL-60(TB) cells after 48 hrs by SRB assay; conditions: HL-60, 48 h
BT-549 = test: Cytotoxicity against human BT549 cells assessed as cell growth at 10^-6 M after 48 hrs by SRB assay; conditions: BT-549, 48 h, read-out: Activity
SK-MEL-5 [6] = test: Cytotoxicity against human SK-MEL-5 cells assessed as cell growth at 10^-8 M after 48 hrs by SRB assay; conditions: SK-MEL-5, 48 h, read-out: Activity
SK-MEL-5 [7] = test: Cytotoxicity against human SK-MEL-5 cells assessed as cell growth at 10^-7 M after 48 hrs by SRB assay; conditions: SK-MEL-5, 48 h, read-out: Activity
COLO 205 = test: Cytotoxicity against human COLO205 cells assessed as cell growth at 10^-7 M after 48 hrs by SRB assay; conditions: COLO 205, 48 h, read-out: Activity
NCI-H460 [8] = test: Cytotoxicity against human NCI-H460 cells assessed as cell growth at 10^-4 M after 48 hrs by SRB assay; conditions: NCI-H460, 48 h, read-out: Activity
PC-3 [9] = test: Cytotoxicity against human PC3 cells assessed as cell growth at 10^-8 M after 48 hrs by SRB assay; conditions: PC-3, 48 h, read-out: Activity
T47D = test: Cytotoxicity against human T47D cells assessed as cell growth at 10^-6 M after 48 hrs by SRB assay; conditions: read-out: Activity
HOP-92 [10] = test: Cytotoxicity against human HOP92 cells after 48 hrs by SRB assay; conditions: HOP-92, 48 h
HCT-15 = test: Cytotoxicity against human HCT15 cells assessed as cell growth at 10^-6 M after 48 hrs by SRB assay; conditions: HCT-15, 48 h, read-out: Activity
SN12C [11] = test: Cytotoxicity against human SN12C cells assessed as cell growth at 10^-7 M after 48 hrs by SRB assay; conditions: read-out: Activity
SK-OV-3 = test: Cytotoxicity against human SKOV3 cells assessed as cell growth at 10^-7 M after 48 hrs by SRB assay; conditions: SK-OV-3, 48 h, read-out: Activity
KM12 [12] = test: Cytotoxicity against human KM12 cells assessed as cell growth at 10^-8 M after 48 hrs by SRB assay; conditions: KM12, 48 h, read-out: Activity
PC-3 [13] = test: Cytotoxicity against human PC3 cells assessed as cell growth at 10^-6 M after 48 hrs by SRB assay; conditions: PC-3, 48 h, read-out: Activity
MOLT-4 [14] = test: Cytotoxicity against human MOLT4 cells after 48 hrs by SRB assay; conditions: MOLT-4, 48 h
Malme-3M = test: Cytotoxicity against human MALME-3M cells assessed as cell growth at 10^-6 M after 48 hrs by SRB assay; conditions: read-out: Activity
SW-620 = test: Cytotoxicity against human SW620 cells assessed as cell growth at 10^-6 M after 48 hrs by SRB assay; conditions: SW-620, 48 h, read-out: Activity
OVCAR-8 = test: Cytotoxicity against human OVCAR8 cells assessed as cell growth at 10^-6 M after 48 hrs by SRB assay; conditions: OVCAR-8, 48 h, read-out: Activity
HCC 2998 = test: Cytotoxicity against human HCC2998 cells after 48 hrs by SRB assay; conditions: HCC 2998, 48 h
MDA-MB-435 = test: Cytotoxicity against human MDA-MB-435 cells assessed as cell growth at 10^-8 M after 48 hrs by SRB assay; conditions: MDA-MB-435, 48 h, read-out: Activity
HCT-116 [15] = test: Cytotoxicity against human HCT116 cells after 48 hrs by SRB assay; conditions: HCT-116, 48 h
SK-MEL-2 = test: Cytotoxicity against human SK-MEL-2 cells assessed as cell growth at 10^-4 M after 48 hrs by SRB assay; conditions: SK-MEL-2, 48 h, read-out: Activity
MOLT-4 [16] = test: Cytotoxicity against human MOLT4 cells assessed as cell growth at 10^-8 M after 48 hrs by SRB assay; conditions: MOLT-4, 48 h, read-out: Activity
NCI-H23 = test: Cytotoxicity against human NCI-H23 cells assessed as cell growth at 10^-4 M after 48 hrs by SRB assay; conditions: NCI-H23, 48 h, read-out: Activity
CCRF-CEM = test: Cytotoxicity against human CCRF-CEM cells assessed as cell growth at 10^-6 M after 48 hrs by SRB assay; conditions: read-out: Activity
A498 = test: Cytotoxicity against human A498 cells after 48 hrs by SRB assay; conditions: A498, 48 h
KM12 [17] = test: Cytotoxicity against human KM12 cells assessed as cell growth at 10^-6 M after 48 hrs by SRB assay; conditions: KM12, 48 h, read-out: Activity
HCT-116 [18] = test: Cytotoxicity against human HCT116 cells assessed as cell growth at 10^-8 M after 48 hrs by SRB assay; conditions: HCT-116, 48 h, read-out: Activity

**Q.** Which results are given for `C=CCn1c(C)nc2ccc(Nc3nc(Nc4ccc5nc(C)n(CC=C)c5c4)c4ccccc4n3)cc21`?
**A.** GI50 (NCI-H522): 2030 nM; TGI (NCI-H522): 3530 nM; GI50 (NCI-H460 [1]): 1890 nM; TGI (NCI-H460 [1]): 3700 nM; growth at 1 µM (UACC-62): 86%; growth at 100 µM (DU-145): -75%; growth at 1 µM (SK-MEL-5 [2]): 91%; growth at 0.1 µM [3]: 80%; growth at 100 µM (HOP-92 [4]): -47%; GI50 (MDA-MB-468): 1220 nM; TGI (MDA-MB-468): 2480 nM; growth at 1 µM (IGROV-1): 99%; growth at 1 µM (SN12C [5]): 90%; GI50 (HL-60(TB)): 1860 nM; TGI (HL-60(TB)): 3720 nM; growth at 1 µM (BT-549): 86%; growth at 0.01 µM (SK-MEL-5 [6]): 94%; growth at 0.1 µM (SK-MEL-5 [7]): 94%; growth at 0.1 µM (COLO 205): 101%; growth at 100 µM (NCI-H460 [8]): -28%; growth at 0.01 µM (PC-3 [9]): 93%; growth at 1 µM (T47D): 80%; GI50 (HOP-92 [10]): 1370 nM; TGI (HOP-92 [10]): 2930 nM; growth at 1 µM (HCT-15): 91%; growth at 0.1 µM (SN12C [11]): 94%; growth at 0.1 µM (SK-OV-3): 95%; growth at 0.01 µM (KM12 [12]): 96%; growth at 1 µM (PC-3 [13]): 71%; GI50 (MOLT-4 [14]): 1670 nM; LC50 (MOLT-4 [14]): > 100000 nM; growth at 1 µM (Malme-3M): 98%; growth at 1 µM (SW-620): 80%; growth at 1 µM (OVCAR-8): 80%; GI50 (HCC 2998): 1720 nM; LC50 (50% lethal concentration) (HCC 2998): 5560 nM; TGI (HCC 2998): 3090 nM; growth at 0.01 µM (MDA-MB-435): 100%; GI50 (HCT-116 [15]): 1370 nM; growth at 100 µM (SK-MEL-2): -25%; growth at 0.01 µM (MOLT-4 [16]): 101%; growth at 100 µM (NCI-H23): -42%; growth at 1 µM (CCRF-CEM): 82%; GI50 (A498): 442 nM; TGI (A498): 2080 nM; growth at 1 µM (KM12 [17]): 89%; growth at 0.01 µM (HCT-116 [18]): 108%
